Reference: the supplement of paper PMC10307832

How the values were obtained:
Assay in all cases: relative viability (nuclei count vs DMSO), 5 days (fraction); higher = more cells survive
201T = system: 201T
In short: (§1)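 A single step with final 0.05% Triton X-100, 1% formaldehyde and 1 ug/ml Hoechst fixed the cells and stained nuclei 5 days after treatment. Lung cancer cell lines in 1536-well plates had been treated by pin tool the day after seeding with one drug alone or a fixed anchor-drug dose plus five library-drug doses (not always all listed) in √10 steps, and nuclei were counted on 4× images. Relative viability is the ratio of nuclei in treated wells to nuclei in vehicle wells, taken as the median of duplicate plates.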

ABC-1 = system: ABC-1
In short: as §1

CAL-12T = system: CAL-12T
In short: as §1

EMC-BAC-2 = system: EMC-BAC-2
In short: as §1

H3255 = system: H3255
In short: as §1

HOP-62 = system: HOP-62
In short: as §1

LK-2 = system: LK-2
In short: as §1

LXF-289 = system: LXF-289
In short: as §1

NCI-H1651 = system: NCI-H1651
In short: as §1

NCI-H1734 = system: NCI-H1734
In short: as §1

NCI-H1755 = system: NCI-H1755
In short: as §1

NCI-H2009 = system: NCI-H2009
In short: as §1

NCI-H2087 = system: NCI-H2087
In short: as §1

NCI-H2126 = system: NCI-H2126
In short: as §1

NCI-H3122 = system: NCI-H3122
In short: as §1

NCI-H322M = system: NCI-H322M
In short: as §1

NCI-H441 = system: NCI-H441
In short: as §1

NCI-H596 = system: NCI-H596
In short: as §1

NCI-H647 = system: NCI-H647
In short: as §1

PC-14 = system: PC-14
In short: as §1

SK-MES-1 = system: SK-MES-1
In short: as §1

O=C(O)CCCCC(CCSCc1ccccc1)SCc1ccccc1 (stereo not given) [CPI-613] + C[C@]1(O)C[C@@H](c2nc(-c3ccc4ccc(-c5ccccc5)nc4c3)c3c(N)nccn32)C1 [Linsitinib] (partner 1 µM)
relative viability (201T; first compound 5 µM): 0.98 | relative viability (201T; first compound 15.81 µM): 0.969 | relative viability (201T; first compound 50 µM): 1.01 | relative viability (201T; first compound 158.11 µM): 0.864 | relative viability (201T; first compound 500 µM): 0.8 | relative viability (ABC-1; first compound 5 µM): 0.744 | relative viability (ABC-1; first compound 15.81 µM): 1.02 | relative viability (ABC-1; first compound 50 µM): 0.815 | relative viability (ABC-1; first compound 158.11 µM): 0.254 | relative viability (ABC-1; first compound 500 µM): 0.169 | relative viability (CAL-12T; first compound 5 µM): 0.865 | relative viability (CAL-12T; first compound 15.81 µM): 0.634 | relative viability (CAL-12T; first compound 50 µM): 0.561 | relative viability (CAL-12T; first compound 158.11 µM): 0.642 | relative viability (CAL-12T; first compound 500 µM): 0.62 | relative viability (EMC-BAC-2; first compound 5 µM): 0.733 | relative viability (EMC-BAC-2; first compound 15.81 µM): 0.823 | relative viability (EMC-BAC-2; first compound 50 µM): 0.825 | relative viability (EMC-BAC-2; first compound 158.11 µM): 0.701 | relative viability (EMC-BAC-2; first compound 500 µM): 0.272 | relative viability (H3255; first compound 5 µM): 0.915 | relative viability (H3255; first compound 15.81 µM): 0.989 | relative viability (H3255; first compound 50 µM): 0.969 | relative viability (H3255; first compound 158.11 µM): 0.948 | relative viability (H3255; first compound 500 µM): 0.921 | relative viability (HOP-62; first compound 5 µM): 1.05 | relative viability (HOP-62; first compound 15.81 µM): 1.05 | relative viability (HOP-62; first compound 50 µM): 0.863 | relative viability (HOP-62; first compound 158.11 µM): 0.611 | relative viability (HOP-62; first compound 500 µM): 0.0257 | relative viability (LK-2; first compound 5 µM): 0.526 | relative viability (LK-2; first compound 15.81 µM): 0.637 | relative viability (LK-2; first compound 50 µM): 0.655 | relative viability (LK-2; first compound 158.11 µM): 0.853 | relative viability (LK-2; first compound 500 µM): 0.54 | relative viability (LXF-289; first compound 5 µM): 0.997 | relative viability (LXF-289; first compound 15.81 µM): 0.969 | relative viability (LXF-289; first compound 50 µM): 0.921 | relative viability (LXF-289; first compound 158.11 µM): 0.269 | relative viability (LXF-289; first compound 500 µM): 0.0192 | relative viability (NCI-H1651; first compound 5 µM): 0.968 | relative viability (NCI-H1651; first compound 15.81 µM): 0.92 | relative viability (NCI-H1651; first compound 50 µM): 0.836 | relative viability (NCI-H1651; first compound 158.11 µM): 0.316 | relative viability (NCI-H1651; first compound 500 µM): 0.133 | relative viability (NCI-H1734; first compound 5 µM): 0.93 | relative viability (NCI-H1734; first compound 15.81 µM): 0.821 | relative viability (NCI-H1734; first compound 50 µM): 0.83 | relative viability (NCI-H1734; first compound 158.11 µM): 0.69 | relative viability (NCI-H1734; first compound 500 µM): 0.117 | relative viability (NCI-H1755; first compound 5 µM): 0.991 | relative viability (NCI-H1755; first compound 15.81 µM): 0.977 | relative viability (NCI-H1755; first compound 50 µM): 0.9 | relative viability (NCI-H1755; first compound 158.11 µM): 0.888 | relative viability (NCI-H1755; first compound 500 µM): 0.152 | relative viability (NCI-H2009; first compound 5 µM): 1.17 | relative viability (NCI-H2009; first compound 15.81 µM): 1.18 | relative viability (NCI-H2009; first compound 50 µM): 1.18 | relative viability (NCI-H2009; first compound 158.11 µM): 0.559 | relative viability (NCI-H2009; first compound 500 µM): 0.019 | relative viability (NCI-H2087; first compound 5 µM): 1.01 | relative viability (NCI-H2087; first compound 15.81 µM): 0.758 | relative viability (NCI-H2087; first compound 50 µM): 0.868 | relative viability (NCI-H2087; first compound 158.11 µM): 0.178 | relative viability (NCI-H2087; first compound 500 µM): 0.0125 | relative viability (NCI-H2126; first compound 5 µM): 0.721 | relative viability (NCI-H2126; first compound 15.81 µM): 0.751 | relative viability (NCI-H2126; first compound 50 µM): 0.712 | relative viability (NCI-H2126; first compound 158.11 µM): 0.534 | relative viability (NCI-H2126; first compound 500 µM): 0.567 | relative viability (NCI-H3122; first compound 5 µM): 0.985 | relative viability (NCI-H3122; first compound 15.81 µM): 1.02 | relative viability (NCI-H3122; first compound 50 µM): 0.988 | relative viability (NCI-H3122; first compound 158.11 µM): 0.644 | relative viability (NCI-H3122; first compound 500 µM): 0.0543 | relative viability (NCI-H322M; first compound 5 µM): 0.832 | relative viability (NCI-H322M; first compound 15.81 µM): 0.721 | relative viability (NCI-H322M; first compound 50 µM): 0.931 | relative viability (NCI-H322M; first compound 158.11 µM): 0.693 | relative viability (NCI-H322M; first compound 500 µM): 0.634 | relative viability (NCI-H441; first compound 5 µM): 0.521 | relative viability (NCI-H441; first compound 15.81 µM): 0.59 | relative viability (NCI-H441; first compound 50 µM): 0.605 | relative viability (NCI-H441; first compound 158.11 µM): 0.255 | relative viability (NCI-H441; first compound 500 µM): 0.132 | relative viability (NCI-H596; first compound 5 µM): 1.02 | relative viability (NCI-H596; first compound 15.81 µM): 1.04 | relative viability (NCI-H596; first compound 50 µM): 1.14 | relative viability (NCI-H596; first compound 158.11 µM): 0.519 | relative viability (NCI-H596; first compound 500 µM): 0.0361 | relative viability (NCI-H647; first compound 5 µM): 1.16 | relative viability (NCI-H647; first compound 15.81 µM): 1.13 | relative viability (NCI-H647; first compound 50 µM): 0.951 | relative viability (NCI-H647; first compound 158.11 µM): 0.107 | relative viability (NCI-H647; first compound 500 µM): 0.0169 | relative viability (PC-14; first compound 5 µM): 0.941 | relative viability (PC-14; first compound 15.81 µM): 0.874 | relative viability (PC-14; first compound 50 µM): 0.928 | relative viability (PC-14; first compound 158.11 µM): 0.857 | relative viability (PC-14; first compound 500 µM): 1.02 | relative viability (SK-MES-1; first compound 5 µM): 1.08 | relative viability (SK-MES-1; first compound 15.81 µM): 1.04 | relative viability (SK-MES-1; first compound 50 µM): 1.03 | relative viability (SK-MES-1; first compound 158.11 µM): 0.863 | relative viability (SK-MES-1; first compound 500 µM): 0.988
